# Laboratory results taken from ChEMBL document CHEMBL1153880, “Synthesis and adrenolytic activity of 1-(1H-indol-4-yloxy)-3-{[2-(2-methoxyphenoxy)ethyl]amino}propan-2-ol and its enantiomers. Part 1” (Eur J Med Chem, 2009).
# The source made the active and inactive calls. No cut-off for these calls is given here.
# Experiments:
# [1] = target: T1, Adrenergic receptor alpha-2 (Rattus norvegicus, UniProt P22086+P19328+P22909); test: Displacement of [3H]clonidine from alpha2 adrenergic receptor in rat cerebral cortex by liquid scintillation method; assay type: tissue-based
# T1 sequence (P22086 whole entry): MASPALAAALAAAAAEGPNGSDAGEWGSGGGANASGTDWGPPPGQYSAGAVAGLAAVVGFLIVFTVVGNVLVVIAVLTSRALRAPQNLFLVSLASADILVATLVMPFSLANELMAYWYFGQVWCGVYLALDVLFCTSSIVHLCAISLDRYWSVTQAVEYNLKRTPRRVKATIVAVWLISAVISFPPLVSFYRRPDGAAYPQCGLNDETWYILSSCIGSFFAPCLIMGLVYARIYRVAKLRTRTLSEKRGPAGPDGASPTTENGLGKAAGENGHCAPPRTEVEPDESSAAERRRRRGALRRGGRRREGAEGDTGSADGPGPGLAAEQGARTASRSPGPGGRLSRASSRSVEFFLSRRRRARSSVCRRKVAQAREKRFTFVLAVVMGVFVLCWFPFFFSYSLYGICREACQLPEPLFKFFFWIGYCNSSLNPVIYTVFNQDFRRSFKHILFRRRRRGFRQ
# T1 sequence (P19328 whole entry): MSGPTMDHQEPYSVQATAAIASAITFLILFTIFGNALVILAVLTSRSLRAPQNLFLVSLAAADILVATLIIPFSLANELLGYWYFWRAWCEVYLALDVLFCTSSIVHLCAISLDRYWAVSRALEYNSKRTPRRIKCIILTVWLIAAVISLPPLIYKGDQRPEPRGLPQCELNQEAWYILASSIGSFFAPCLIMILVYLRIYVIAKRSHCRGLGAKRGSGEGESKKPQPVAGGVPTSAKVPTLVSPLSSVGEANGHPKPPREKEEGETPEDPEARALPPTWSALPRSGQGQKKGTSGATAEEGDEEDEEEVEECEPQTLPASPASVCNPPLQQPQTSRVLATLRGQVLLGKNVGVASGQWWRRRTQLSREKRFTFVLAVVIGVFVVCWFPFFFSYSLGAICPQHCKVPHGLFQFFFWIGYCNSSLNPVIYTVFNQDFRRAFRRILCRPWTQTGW
# T1 sequence (P22909 whole entry): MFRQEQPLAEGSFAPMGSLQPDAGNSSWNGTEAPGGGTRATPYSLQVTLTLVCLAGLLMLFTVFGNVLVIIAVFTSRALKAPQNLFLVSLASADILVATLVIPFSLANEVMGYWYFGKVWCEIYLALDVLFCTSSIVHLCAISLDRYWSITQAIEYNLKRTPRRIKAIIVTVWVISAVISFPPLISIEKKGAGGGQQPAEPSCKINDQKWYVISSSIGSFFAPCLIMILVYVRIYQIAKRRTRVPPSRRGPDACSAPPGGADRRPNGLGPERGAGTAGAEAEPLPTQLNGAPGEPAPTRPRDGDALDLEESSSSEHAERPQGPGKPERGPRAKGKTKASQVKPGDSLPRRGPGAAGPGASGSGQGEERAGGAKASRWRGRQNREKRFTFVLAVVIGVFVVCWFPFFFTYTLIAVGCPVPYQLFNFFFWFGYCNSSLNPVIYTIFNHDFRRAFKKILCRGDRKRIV
# [2] = test system: Rattus norvegicus; test: Effect on electrocardiogram in anaesthetized Wistar rat assessed as change in P-Q interval at 1 mg/kg, iv after 1 min by electrocardiography; assay type: functional
# [3] = test system: Rattus norvegicus; test: Effect on heart rate in anaesthetized Wistar rat assessed as number of beats per minute at 1 mg/kg, iv after 1 min by electrocardiography; assay type: functional
# [4] = test system: Rattus norvegicus; test: Effect on electrocardiogram in anaesthetized Wistar rat assessed as change in P-Q-interval at 1 mg/kg, iv after 5 mins by electrocardiography; assay type: functional
# [5] = test system: Rattus norvegicus; test: Effect on heart rate in anaesthetized Wistar rat assessed as number of beats per minute at 1 mg/kg, iv after 5 mins by electrocardiography; assay type: functional
# [6] = test system: Rattus norvegicus; test: Effect on heart rate in anaesthetized Wistar rat assessed as number of beats per minute at 1 mg/kg, iv after 15 mins by electrocardiography; assay type: functional
# [7] = test system: Rattus norvegicus; test: Antiarrhythmic activity against adrenaline-induced arrhythmia in po dosed anaesthetized Wistar rat assessed as inhibition of premature ventricular beats pretreated 60 mins prior to adrenaline challenge; assay type: functional; details: Heart
# [8] = Acute toxicity in iv dosed anaesthetized Wistar rat; assay type: organism-based; details: in vivo
# [9] = test system: Rattus norvegicus; test: Hypotensive activity in anaesthetized normotensive Wistar rat assessed as reduction in methoxamine-induced pressor response at 1 mg/kg, iv after 5 mins; assay type: functional, organism-based; set-up: dose 1 mg/kg
SMILES,Ki [1] [nM],Activity [2] [ms],Activity [3] [min⁻¹],Activity [4] [ms],Activity [5] [min⁻¹],Activity [6] [min⁻¹],ED50 [7] [mg/kg],LD50 [8] [mg/kg],Activity [9]
COc1ccccc1OCCNC[C@H](O)COc1cccc2[nH]ccc12,365.5,52.3,297.2,49.7,291.3,304.2,0.61,36.2,Active
COc1ccccc1OCCNCC(O)COc1cccc2[nH]ccc12 (racemic),1.4,47.2,298.7,48.1,294.5,287.3,0.44,20,Active
COc1ccccc1OCCNC[C@@H](O)COc1cccc2[nH]ccc12,467.3,53.7,307.8,50.7,310.2,298,1.28,20.4,Active
